In patent publication US6750348B1, “Chemokine receptor binding heterocyclic compounds” (AnorMED, Inc., priority 1999, dated 2004):

system: HIV-1 NL4.3 or IIIB; assay: Inhibition of HIV-1 (NL4.3 or IIIB) replication in MT-4 cells (MTT); type: cell-based; details: Human immunodeficiency virus 1, IIIB, MT4, read-out: EC50, inhibition of HIV-1 NL4.3 or IIIB replication
Experimental: Compounds were tested for their ability to inhibit HIV-1 replication in MT-4 cells or PBMC's (peripheral blood mononucleocytes) using published procedures (for example, see: Labrosse et al. J. Virol. 1998, 6381-6388; Simmons et al. J. Virol. 1998, 8453-8457; Donzella et al. Nature Medicine 1998, 72-77; Schols et al. J. Exp. Med. 1997, 1383-1388; De Clercq et al. Antiviral Res. 1997, 147-156; and Bridger et al. U.S. patent application Ser. No. 09/111,895). In addition to the above references, experimental methods for performing anti-viral assays can also be found in: Bridger et al. J. Med. Chem. 1995, 38, 366-378; Bridger et al. J. Med. Chem. 1996, 39, 109-119; Bridger et al. U.S. Pat. No. 5,698,546; Bridger et al. U.S. Pat. No. 5,583,131; Bridger et al. U.S. Pat. No. 5,817,807; De Clercq et al. Antimicrob. Agents and Chemother. 1994, 38, 668-674.
1. The HIV-1 strains NL4.3 and IIIB are T-tropic strains that exclusively use CXCR4 as the co-receptor for entry into cells. MT-4 Cells express CXCR4 but not CCR5.
Inhibition of HIV-1 NL4.3 (or IIIB) replication assays were performed as previously described (Bridger et al. J. Med. Chem. 1999, 42, 3971-3981; De Clercq et al. Proc. Natl. Acad. Sci, 1992, 89, 5286-5290; De Clercq et al. Antimicrob. Agents Chemother. 1994, 38, 668-674; Bridger et al. J. Med. Chem. 1995, 38, 366-378). Anti-HIV activity and cytotoxicity measurements were carried out in parallel. They were based on the viability of MT-4 cells that had been infected with HIV in the presence of various concentrations of the test compounds. After the MT-4 cells were allowed to proliferate for 5 days, the number of viable cells was quantified by a tetrazolium-based calorimetric 3-(4,5-dimethylthiazol-2-yl)-2,5-diphenyltetrazolium bromide (MTT) procedure in 96-well microtrays. In all of these assays, viral input (viral multiplicity of infection, MOI) was 0.01, or 100 times the 50% cell culture infective dose (CCID50). The EC50 was defined as the concentration required to protect 50% of the virus-infected cells against viral cytopathicity.

| SMILES | EC50 |
| --- | --- |
| c1ccc(CNCc2ccc(CN(Cc3ncc[nH]3)C3CCCc4cccnc43)cc2)nc1 (centres unmarked) [Example 15, N-(2-pyridinylmethyl)-N′-(1H-imidazol-2-ylmethyl)-N′-(5,6,7,8-tetrahydro-8-quinolinyl)-1,4-benzenedimethanamine] | < 20 µg/mL |

same assay, conditions: Human immunodeficiency virus 1, IIIB, MT4, read-out: EC50, inhibition of HIV-1 NLA.3 or IIIB replication

| SMILES | EC50 |
| --- | --- |
| Oc1cccc2ccc(CN(Cc3ccc(CNCc4ccccn4)cc3)C3CCCCc4cccnc43)nc12 (centres unmarked) [Example 157, N-[(8-hydroxy)-2-quinolylmethyl]-N′-(2-pyridinylmethyl)-N-(6,7,8,9-tetrahydro-5H-cyclohepta[b]pyridin-9-yl)-1,4-benzenedimethanamine] | < 20 µM |
| c1ccc(CNCc2ccc(CN(Cc3ccc4ccccc4n3)C3CCCCc4cccnc43)cc2)nc1 (centres unmarked) [Example 158, N-(2-quinolylmethyl)-N′-(2-pyridinylmethyl)-N-(6,7,8,9-tetrahydro-5H-cyclohepta[b]pyridin-9-yl)-1,4-benzenedimethanamine] | < 20 µM |

system: SDF-1α induced Ca flux in SUP-T1 cells; assay: Inhibition of SDF-1α induced Ca flux in SUP-T1 cells (FLIPR); type: cell-based; details: Homo sapiens, at 20 μM, read-out: inhibited SDF-1α induced Ca flux
Experimental: Loading dye: Fluo-3, AM (Molecular Probes F-1241) is dissolved in anhydrous DMSO and stored frozen in aliquots. To increase the solubility of the dye in the loading medium, 10% (w/v) pluronic acid (Molecular Probes F-127) is added to the Fluo-3 stock solution immediately before use.
HBSS+20 mM Hepes buffer+0.2% BSA, pH 7.4. HBSS 10× [(w/o phenol red and sodium bicarbonate (Gibco 14 065-049)]; Hepes buffer 1M (Gibco 15 630-056), BSA (Sigma A3675). The flux buffer is vacuum-filtered and stored refrigerated for a maximum of 5 days. Before use in the experiment, the buffer is warmed at 37° C. in a waterbath.
The test compounds were diluted in flux buffer and added to 4 wells of a black microplate (4 parallel measurements per compound).
The chemokines are diluted in flux buffer to concentrations that are 4-fold higher than the desired concentrations required for stimulation of the cells (i.e. 2.5 nM for SDF-1α and 0.6 nM for RANTES). The chemokines were added to untreated 96-well Sero well compound plates (International Medical, Sterilin code 611F96). In the negative control well's (baseline monitoring), flux buffer is added instead of chemokine. As a positive control to check for dye loading efficiency, 20 μM digitonin (final concentration) was also included. The agonist plate was incubated in the FLIPR (37° C.) for 15-30 min.
SUP-T1 cells were centrifuged at room temperature (RT) and re-suspended in loading medium (RPMI-1640 containing 2% FBS and 4 μM Fluo-3, AM). The cells were incubate at room temperature for 45 min. then washed twice in flux buffer then incubated in flux buffer at room temperature for 10 min. The cells were centrifuged and re-suspended in flux buffer at a density of 3×10^6 cells per mL. […] The microplate is then gently centrifuged at room temperature. Homogeneous spreading of the cells on the bottom of the microplate wells was then confirmed with a microscope and the microplate was incubated in the FLIPR (37° C.) for 10 min. prior to testing.
The FLIPR settings (camera exposure time and laser power) are adjusted to obtain initial fluorescence values between 8,000 and 10,000 units. After monitoring a 20 second-baseline, the agonist (chemokine) (50 μL) is added by automatic pipettor with black pipette tips. Fluorescence is measured simultaneously in all wells of the microplate every 2 seconds (first 2 min) and thereafter every 6 seconds (additional 2 min). The average ca-flux measured in each set of 4 identical wells (one test compound) was calculated by the FLIPR software.
The compounds of the current invention were tested for inhibition of SDF-1α induced Ca flux in SUP-T1 cells using the method described above.

| SMILES | inhibition at 20 µM |
| --- | --- |
| Cc1onc(-c2ccccc2Cl)c1C(=O)N1CCC(N(Cc2cccc(CNCc3ccccn3)c2)Cc2ccccn2)CC1 [Example 98, N,N′-bis(2-pyridinylmethyl)-N-[1-[3-(2-chlorophenyl)-5-methyl-isoxazol-4-oyl]-4-piperidinyl]-1,3-benzenedimethanamine] | > 20% |
| O=C(NN1CCC(N(Cc2ccc(CNCc3ccccn3)cc2)Cc2ccccn2)CC1)c1cccnc1 [Example 131, N-[1-(3-pyridinecarboxamido)-4-piperidinyl]-N,N′-bis(2-pyridinylmethyl)-1,4-benzenedimethanamine] | > 20% |
| Cc1onc(-c2ccccc2Cl)c1C(=O)NN1CCC(N(Cc2ccc(CNCc3ccccn3)cc2)Cc2ccccn2)CC1 [Example 135, N-[1-[3-(2-chlorophenyl)-5-methyl-isoxazol-4-carboxamido]-4-piperidinyl]-N,N′-bis(2-pyridinylmethyl)-1,4-benzenedimethanamine] | > 20% |
| c1ccc(CN2CCC(N(Cc3ccc(CNCc4ccccn4)cc3)Cc3ccccn3)C2)cc1 (centres unmarked) [Example 145, N-[1-(benzyl)-3-pyrrolidinyl]-N,N′-bis(2-pyridinylmethyl)-1,4-benzenedimethanamine] | > 20% |
| CC(C)N1CCC(N(Cc2ccc(CNCc3ccccn3)cc2)Cc2ccccn2)CC1 [Example 147, N-[1-(iso-propyl)-4-piperidinyl]-N,N′-bis(2-pyridinylmethyl)-1,4-benzenedimethanamine] | > 20% |
| CCCCN1CCC(N(CCc2ccccn2)Cc2cccc(CNCc3ccccn3)c2)CC1 [Example 177, N-[1-butyl-4-piperidinyl]-N-[2-(2-pyridinyl)ethyl]-N′-(2-pyridinylmethyl)-1,3-benzenedimethanamine] | > 20% |
| O=C(c1ccccc1)N1CCC(N(CCc2ccccn2)Cc2cccc(CNCc3ccccn3)c2)CC1 [Example 178, N-[1-benzoyl-4-piperidinyl]-N-[2-(2-pyridinyl)ethyl]-N′-(2-pyridinylmethyl)-1,3-benzenedimethanamine] | > 20% |
| Cn1cc(CN(CCc2ccccn2)Cc2cccc(CNCc3ccccn3)c2)c2ccccc21 [Example 180, N-[(1-methyl)benzo[b]pyrrol-3-ylmethyl]-N-[2-(2-pyridinyl)ethyl]-N′-(2-pyridinylmethyl)-1,3-benzenedimethanamine] | > 20% |
| c1ccc(CN2CCC(N(CCc3ccccn3)Cc3ccc(CNCc4ccccn4)cc3)CC2)cc1 [Example 182, N-[1-(benzyl)-4-piperidinyl]-N-[2-(2-pyridinyl)ethyl]-N′-(2-pyridinylmethyl)-1,4-benzenedimethanamine] | > 20% |
| Cn1c(CN(CCc2ccccn2)Cc2ccc(CNCc3ccccn3)cc2)nc2ccccc21 [Example 183, N-[1-methylbenzimidazol-2-ylmethyl]-N-[2-(2-pyridinyl)ethyl]-N′-(2-pyridinylmethyl)-1,4-benzenedimethanamine] | > 20% |
| c1ccc(-c2[nH]c3ccccc3c2CN(CCc2ccccn2)Cc2ccc(CNCc3ccccn3)cc2)cc1 [Example 184, N-[(2-phenyl)benzo[b]pyrrol-3-ylmethyl]-N-[2-(2-pyridinyl)ethyl]-N′-(2-pyridinylmethyl)-1,4-benzenedimethanamine] | > 20% |

same assay, conditions: Homo sapiens, at 20 μg/mL, read-out: inhibited SDF-1α induced Ca flux

| SMILES | inhibition at 20 µg/mL |
| --- | --- |
| c1ccc(CNCc2ccc(CNc3cccc4c3NCCC4)cc2)nc1 [Example 9, N-(2-pyridinylmethyl)-N′-(1,2,3,4-tetrahydro-8-quinolinyl)-1,4-benzenedimethanamine] | > 20% |
| c1ccc(CNCc2ccc(CN(Cc3ncc[nH]3)C3CCCc4cccnc43)cc2)nc1 (centres unmarked) [Example 15, N-(2-pyridinylmethyl)-N′-(1H-imidazol-2-ylmethyl)-N′-(5,6,7,8-tetrahydro-8-quinolinyl)-1,4-benzenedimethanamine] | > 20% |
| c1ccc(CNCc2ccc(CN(Cc3ccc[nH]3)C3CCCc4cccnc43)cc2)nc1 (centres unmarked) [Example 26, N-(2-pyridinylmethyl)-N′-[2-pyrrolylmethyl]-N′-(5,6,7,8-tetrahydro-8-quinolinyl)-1,4-benzenedimethanamine] | > 20% |
| NCCN(Cc1ccc(CNCc2ccccn2)cc1)C1CCCc2cccnc21 (centres unmarked) [Example 31, N-(2-pyridinylmethyl)-N′-(2-aminoethyl)-N′-(5,6,7,8-tetrahydro-8-quinolinyl)-1,4-benzenedimethanamine] | > 20% |
| c1ccc(CN(Cc2ccc(CNCc3ccccn3)cc2)C2CCCc3cccnc32)cc1 (centres unmarked) [Example 60, N-(2-pyridinylmethyl)-N′-(phenylmethyl)-N′-(5,6,7,8-tetrahydro-8-quinolinyl)-1,4-benzenedimethanamine] | > 20% |
| NCC(=O)N(Cc1ccc(CNCc2ccccn2)cc1)C1CCCc2cccnc21 (centres unmarked) [Example 72, N-[[4-[[(2-pyridinylmethyl)amino]methyl]phenyl]methyl]-N-(5,6,7,8-tetrahydro-8-quinolinyl)-glycinamide] | > 20% |
| O=C(c1cnccn1)N(Cc1ccc(CNCc2ccccn2)cc1)C1CCCc2cccnc21 (centres unmarked) [Example 75, N-[[4-[[(2-pyridinylmethyl)amino]methyl]phenyl]methyl]-N-(5,6,7,8-tetrahydro-8-quinolinyl)-pyrazinamide] | > 20% |
| O=C(c1ccccn1)N(Cc1ccc(CNCc2ccccn2)cc1)C1CCCc2cccnc21 (centres unmarked) [Example 79, N-[[4-[[(2-pyridinylmethyl)amino]methyl]phenyl]methyl]-N-(5,6,7,8-tetrahydro-8-quinolinyl)-picolinamide] | > 20% |
| O=C(NC1CCCCc2cccnc21)c1ccc(CNCc2ccccn2)cc1 (centres unmarked) [Example 82, N-(6,7,8,9-tetrahydro-5H-cyclohepta[b]pyridin-9-yl)-4-[[(2-pyridinylmethyl)amino]methyl]benzamide] | > 20% |
